One data set concerns the target P-gp (Homo sapiens, UniProt P08183). The following applies: their (Boumendjel et al.) experiments; cited from earlier work.
Data set [1] deals with T1, P-gp 170 (Homo sapiens, UniProt P08183).
In data set [2] the target is T1, P-gp 170. As to the kind of experiment: in vitro. The following applies: for Amax (maximum accumulation of intracellular vinblastine), fold higher than control: human, 60 min. An excerpt:
(§1) The KB/MDR cells, which overexpress human P-gp 170 protein, were used to evaluate the anti-P-gp 170 activity of drugs. […] The concentration of compound required to achieve 50% maximum accumulation of vinblastine is presented as the EC50 value. The maximum accumulation of intracellular vinblastine caused by the compounds in one hour is expressed as Amax (picomoles/10^6 cells). The cell growth inhibitory activity of compounds is presented as the concentration required to inhibit 50% growth of KB or KB/MDR cell lines (IC50) following three days of compound treatment.
(§2) Vinblastine uptake by the KB/MDR cells. KB/MDR cells,^37 which overexpress human P-gp 170 protein, were seeded into 24-well tissue culture plates in RPMI 1640 medium plus 10% fetal bovine serum for 24 hours without the selecting agent doxorubicin (37 nM). The cells were then treated with [^3H]vinblastine plus synthetic flavones in HBSS for 60 minutes. The cells were washed twice with ice-cold PBS, harvested with 1 N NaOH, neutralized with 1 N HCl. The cell aliquots were transferred to scintillation vials and counted with a […] (Beckman, model LS 5000) after adding 10 mL scintillation fluids (SafeScint, American Bioanalytical Co., Natick, Mass.). Data presented are the mean of three independent experiments.

For the next data set, the system named is KB cells. In words: Growth inhibitory assay, KB cells. Format: cell-based, human. The conditions noted are these: 3 days. On the procedure: (§3) The cells were then fixed and stained with methylene blue in 50% MeOH, washed thoroughly with tap water, and dissolved with 0.5 mL 0.5% sarcosyl.^38 The amount of cellular protein, which is proportional to the cell number, is estimated by the absorption (OD595nm). The growth inhibitory assay, which is presented as an IC50 value, represents the concentration of compound required to inhibit 50% of cell growth. The cell doubling time of KB and KB/MDR cells is about 20 to 24 hours. The data presented are the mean of three independent experiments.

The next data set concerns KB/MDR cells. In words: Growth inhibitory assay, KB/MDR cells. It is filed as cell-based, human. The conditions noted are these: 3 days. On the procedure: as §3
Data set [3] deals with P-gp 170 (human P-glycoprotein) (Homo sapiens, UniProt P08183). In words: in vitro. The following applies: human.
Text: as §1, §2

Data set [4] concerns the target T1, P-gp 170. In words: Inhibitory activity of Scute and its components against P-gp 170 efflux action (previous study).

pEC50: −log10 of the molar value. Like-named read-outs stand apart in the source and are kept apart here.

T1 sequence (P08183 whole entry): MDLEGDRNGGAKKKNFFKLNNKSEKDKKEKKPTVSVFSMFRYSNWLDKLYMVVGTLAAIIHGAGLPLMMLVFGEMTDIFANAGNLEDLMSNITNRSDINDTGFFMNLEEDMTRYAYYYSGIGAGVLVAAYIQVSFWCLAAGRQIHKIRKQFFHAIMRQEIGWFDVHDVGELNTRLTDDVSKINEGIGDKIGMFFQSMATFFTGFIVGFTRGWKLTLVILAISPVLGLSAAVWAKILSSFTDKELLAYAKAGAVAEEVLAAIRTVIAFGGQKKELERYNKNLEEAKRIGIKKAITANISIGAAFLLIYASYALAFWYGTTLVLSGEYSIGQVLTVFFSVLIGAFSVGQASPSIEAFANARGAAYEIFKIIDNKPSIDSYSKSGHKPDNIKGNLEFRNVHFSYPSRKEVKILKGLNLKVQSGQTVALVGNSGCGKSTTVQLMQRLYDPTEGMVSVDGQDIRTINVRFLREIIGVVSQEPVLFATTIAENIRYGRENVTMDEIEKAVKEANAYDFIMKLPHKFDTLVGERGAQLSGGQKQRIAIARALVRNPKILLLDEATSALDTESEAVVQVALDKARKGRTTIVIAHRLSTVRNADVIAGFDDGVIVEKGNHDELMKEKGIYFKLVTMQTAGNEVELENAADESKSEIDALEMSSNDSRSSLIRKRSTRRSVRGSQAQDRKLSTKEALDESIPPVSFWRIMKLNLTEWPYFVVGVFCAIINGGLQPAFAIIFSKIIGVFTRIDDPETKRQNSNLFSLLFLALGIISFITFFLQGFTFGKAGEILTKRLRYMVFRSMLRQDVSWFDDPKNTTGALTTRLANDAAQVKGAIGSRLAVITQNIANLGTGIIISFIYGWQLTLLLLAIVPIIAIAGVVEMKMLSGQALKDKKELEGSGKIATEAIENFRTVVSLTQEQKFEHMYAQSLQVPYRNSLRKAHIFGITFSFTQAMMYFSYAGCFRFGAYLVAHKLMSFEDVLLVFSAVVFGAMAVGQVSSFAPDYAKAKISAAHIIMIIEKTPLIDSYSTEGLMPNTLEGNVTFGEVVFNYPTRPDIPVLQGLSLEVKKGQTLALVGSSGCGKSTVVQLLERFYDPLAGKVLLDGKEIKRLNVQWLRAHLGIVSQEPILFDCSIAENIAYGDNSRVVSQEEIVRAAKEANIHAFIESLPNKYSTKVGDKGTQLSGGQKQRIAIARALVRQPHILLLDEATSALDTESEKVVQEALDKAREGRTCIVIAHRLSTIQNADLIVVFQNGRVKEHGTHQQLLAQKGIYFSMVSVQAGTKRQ
Sequence of P-gp 170 (human P-glycoprotein) (P08183 whole entry): as above
Sequence of P-gp (P08183 whole entry): as above

`CCOc1cc2oc(-c3ccccc3)cc(=O)c2c(OC)c1OCC` gave a melting point of 126 to 128 °C. On to `O=c1cc(-c2ccccc2)oc2cc(OCc3ccccc3)cc(O)c12` [7-benzoxy-5-hydroxyflavone], for which the “Amax / drug accumulation as compared to cyclosporin A” value on P-gp is listed as 25%.

Consider `O=c1cc(-c2ccccc2)oc2cc(O)c(O)c(O)c12` [Compound 1, baicalein], for which the “anti-P-gp 170 activity in words” value at P-gp 170 [1] is “active component”.

In turn, `CC(=O)Oc1c(O)cc2oc(-c3ccccc3)cc(=O)c2c1O` [Compound 2, 6-Acetoxy-5,7-dihydroxyflavone] showed a melting point of 205 to 207 °C. Further, on P-gp 170 [2], the “EC50 relative to the parental compound (baicalein)” value is listed as “one-fourth”. As to `CC(=O)Oc1cc2oc(-c3ccccc3)cc(=O)c2c(O)c1OC(C)=O` [Compound 3, 6,7-Diacetoxy-5-hydroxyflavone], the “EC50 relative to the parental compound (baicalein)” value on P-gp 170 [2] (KB/MDR cells) is recorded as “one-fourth”. For the molecule `COc1cc2oc(-c3ccccc3)cc(=O)c2c(OC)c1OC(C)=O` [Compound 5, 6-Acetoxy-5,7-dimethoxyflavone], the melting point was 208 to 210 °C. For the molecule `COc1cc2oc(-c3ccccc3)cc(=O)c2c(OC)c1OC` [Compound 6, 5,6,7-Trimethoxyflavone], the pEC50 on P-gp 170 [2] is 5.34. Still for that read-out and setting: the same measure for `COc1cc2oc(-c3ccccc3)cc(=O)c2c(O)c1OC` [Compound 8, 5-Hydroxy-6,7-dimethoxyflavone]: 5.26.

In turn, `CC(=O)Oc1cc2oc(-c3ccccc3)cc(=O)c2c(OCc2ccccc2)c1OC(C)=O` [Compound 9, 6,7-Diacetoxy-5-(benzoxy)flavone] gave a melting point of 175 to 177 °C. Besides, the “anti-P-gp 170 efflux activity (EC50, Amax) in words” value (from here on “anti-P-gp 170 efflux activity”) at P-gp 170 [2] is “low EC50 but higher Amax in comparison with baicalein”. As to `CC(=O)Oc1cc2oc(-c3ccccc3)cc(=O)c2c(O)c1OCc1ccccc1` [Compound 10, 7-Acetoxy-6-(benzoxy)-5-hydroxyflavone], the “anti-P-gp 170 efflux activity” value at P-gp 170 [2] is “low EC50 but higher Amax in comparison with baicalein”. In the case of `COc1c2c(cc3oc(-c4ccccc4)cc(=O)c13)OC(c1ccccc1)(c1ccccc1)O2` [Compound 13, 6,7-(Diphenylmethylenedioxy)-5-methoxyflavone], the “anti-P-gp 170 efflux activity” value on P-gp 170 [2] is listed as “decreased”. For the same molecule, the cytotoxicity in words entry in the data set with KB cells and with KB/MDR cells was “decreased” each time.

The molecule `CC(=O)Oc1c(OCc2ccccc2)cc2oc(-c3ccccc3)cc(=O)c2c1OC(C)=O` [Compound 14, 5,6Diacetoxy-7-(benzoxy)flavone] registered a melting point of 174 to 175 °C. On P-gp 170 [2], the “anti-P-gp 170 efflux activity” value is on record as “low EC50 but higher Amax in comparison with baicalein”.

As for `O=c1cc(-c2ccccc2)oc2cc(O)c(OCc3ccccc3)c(O)c12` [Compound 15, 6-(Benzoxy)-5,7-dihydroxyflavone], the “anti-P-gp 170 efflux activity” value on P-gp 170 [2] is “low EC50 but higher Amax in comparison with baicalein”. As to `O=c1cc(-c2ccccc2)oc2cc(OCc3ccccc3)c(OCc3ccccc3)c(O)c12` [Compound 16, 6,7-(Dibenzoxy)-5-hydroxy-flavone], the cytotoxicity in words entry with KB cells is “decreased and lost”; in the data set with KB/MDR cells, “decreased and lost”. The molecule `CCCOc1c(O)cc2oc(-c3ccccc3)cc(=O)c2c1O` [Compound 17, 5,7-Dihydroxy-6-propoxyflavone] showed a melting point of 162 to 163 °C. In addition, at P-gp 170 [2], the pEC50 is 5.70 and the “Amax (maximum accumulation of intracellular vinblastine), fold higher than control” value (from here on “Amax … fold higher than control”) stood at 9 fold. In the case of `CCCOc1cc2oc(-c3ccccc3)cc(=O)c2c(O)c1OCCC` [Compound 18, 5-Hydroxy-6,7-dipropoxyflavone], on P-gp 170 [2], the “Amax … fold higher than control” value worked out at 10 fold. The molecule further gave an EC50 at 60 min in data set [3] of 1400 nM. `CCCOc1c(OC)cc2oc(-c3ccccc3)cc(=O)c2c1O` [Compound 21, 5-Hydroxy-7-methoxy-6-propoxyflavone]: at P-gp 170 [2], the pEC50 is 5.92 and the “Amax … fold higher than control” value is reported as 9 fold.

The molecule `CCCOc1cc2oc(-c3ccccc3)cc(=O)c2c(OC)c1OCCC` [Compound 23, 5-Methoxy-6,7-dipropoxyflavone] had a pEC50 on P-gp 170 [2] of 6.05. As for `CC(=O)Oc1c(OC(C)=O)c(O)c2c(=O)cc(-c3ccccc3)oc2c1Br` [Compound 24, 6,7-Diacetoxy-8-bromo-5-hydroxyflavone], the melting point lay within 244 to 246 °C. Also, at P-gp 170 [2], the “anti-P-gp 170 efflux activity” value is listed as “less favorable activity against P-gp 170 activity than compound 3”. For `O=c1cc(-c2ccccc2)oc2c(Br)c(O)c(O)c(O)c12` [Compound 25, 8-Bromo-5,6,7-trihydroxyflavone], at P-gp 170 [2], the “anti-P-gp 170 efflux activity” value is recorded as “Amax did not change”. In addition, in data set [3], the EC50 at 60 min amounted to 15000 nM. Molecule `CCOc1c(O)cc2oc(-c3ccccc3)cc(=O)c2c1O` [Compound 32, 6-Ethoxy-5,7-dihydroxyflavone] had a pEC50 at P-gp 170 [2] of 5.64. The same measure, in the same setting: as for `CCOc1cc2oc(-c3ccccc3)cc(=O)c2c(O)c1OCC` [Compound 33, 6,7-Diethoxy-5-hydroxyflavone], the figure is 5.74. In the case of `CCOc1c(OC)cc2oc(-c3ccccc3)cc(=O)c2c1O` [Compound 38, 6-Ethoxy-5-hydroxy-7-methoxyflavone], the melting point is 133 to 134 °C. The same measure, in the same setting: as for `CCCCOc1cc2oc(-c3ccccc3)cc(=O)c2c(O)c1OCCCC` [Compound 45, 6,7-Dibutoxy-5-hydroxyflavone], the figure is 116 to 117 °C. Still for that read-out and setting: the same measure for `CCCCOc1cc2oc(-c3ccccc3)cc(=O)c2c(OC)c1OCCCC` [Compound 46, 6,7-Dibutoxy-5-methoxyflavone]: 103 to 105 °C. For the molecule `COc1c(O)cc(O)c2c(=O)cc(-c3ccccc3)oc12` [wogonin, 5,7-dihydroxy-8-methoxyflavone], the “anti-P-gp 170 activity in words” value on P-gp 170 [1] was “lack inhibitory activity”. As to `COc1c(O[C@@H]2O[C@H](C(=O)O)[C@@H](O)[C@H](O)[C@H]2O)cc(O)c2c(=O)cc(-c3ccccc3)oc12` [wogonoside], the “anti-P-gp 170 activity in words” value at P-gp 170 [4] is on record as “lack inhibitory activity”.

(Values after patent US7875650B2, “Compounds and methods to increase anti-P-glycoprotein activity of baicalein by alkylation on the A ring” (Yale University, priority 2004, dated 2011).)
